Experimental findings from US9737073B2, “Herbicidal weed control from combinations of fluroxypyr and ALS inhibitors” (Dow AgroSciences LLC, priority 2014, dated 2017) are described below.

The structures appear in SMILES notation.

Assay type in all cases: in vivo
Assay [1] concerns Amaranthus rudis Sauer (common waterhemp, AMATA). Kind of assay: Postemergence herbicidal weed control, fluroxypyr-meptyl and chlorimuron-ethyl, field trials (Table 3). The procedure: (§1) Seeds of the desired test plant species were planted in a peat-based potting soil, Metro-Mix 360® in plastic pots with a surface area of 128 square centimeters (cm^2). Metro-Mix 360® consists of formulated Canadian sphagnum peat moss, coarse perlite, bark ash, a starter nutrient charge (with gypsum), a slow-release nitrogen and dolomitic limestone. The plants were grown for 7-19 days in a greenhouse with an approximate 14-hour (h) photoperiod which was maintained at about 29° C. during the day and 26° C. during the night. Nutrients and water were added on a regular basis and supplemental lighting was provided with overhead metal halide 1000-Watt lamps as necessary. The plants were treated with postemergence foliar applications when they reached the third to fourth true leaf stage. All treatments were applied using a randomized complete block trial design, with 4 replications per treatment.
(§2) Treatments consisted of the compounds as listed in Tables 1 to 4, each compound applied alone and in combination. Commercially formulated products of fluroxypyr-meptyl (STARANE™, 333 grams acid equivalent per liter (g ae/L) EC), diclosulam (SPIDER® 84WG), cloransulam-methyl (FIRSTRATE™ 84WG), chlorimuron-ethyl (CLASSIC® 25WG) and thifensulfuron-methyl (HARMONY® 50SG). Formulated amounts of fluroxypyr-meptyl, diclosulam, cloransulam-methyl, chlorimuron-ethyl and thifensulfuron-methyl were placed in 60 milliliter (mL) glass vials and dissolved in a volume of 30 or 60 mL of a water solution containing Agri-dex crop oil concentrate in a 1% volume per volume (v/v) ratio. Compound requirements are based upon either a 30- or a 60-mL application volume at a rate of 200 liters per hectare (L/ha). Spray solutions of the mixtures were prepared by adding the stock solutions to the appropriate amount of dilution solution to form either a 30- or a 60-mL spray solution with active ingredients in single and two-way combinations. Formulated compounds were applied to the plant material with an overhead Generation III Research Sprayer manufactured by DeVries Manufacturing in Hollandale, Minn., USA. The track sprayer was equipped with an 8003E nozzle calibrated to deliver 200 L/ha at a spray height of 18 inches (43 centimeters (cm)) above average plant canopy.
(§3) The treated plants and untreated control plants were placed in a greenhouse as described above and watered by sub-irrigation to prevent wash-off of the test compounds.
(§4) Treatments were rated at 7 to 21 days after application (DAA) as compared to the untreated control plants. Visual weed control was scored on a scale of 0 to 100 percent where 0 corresponds to no injury and 100 corresponds to complete kill.
(§5) Field trials were conducted using standard herbicide small plot research methodology. Plots varied from 3×3.3 meter (m) to 4.5×10 m (width×length) with 4 replicates per treatment. The crops used in the field trials were grown using normal cultural practices for land preparation, fertilization, seeding and maintenance to ensure good growth of the crop and the weeds.
(§6) All treatments in the field trials were applied using either pressurized air or carbon dioxide (CO2) backpack or bicycle sprayers calibrated to apply 100-187 L/ha spray volume. Flat Fan spray nozzles were used in all trials, with water as the diluent applied at 275-300 kilopascals (kPa). Weed sizes at application ranged from 10 to 40 cm tall. Commercially available products of fluroxypyr-meptyl (STARANE™, 180 and 333 g ae/L EC), diclosulam (SPIDER® 84WG), and thifensulfuron-methyl (HARMONY® 75WG) were mixed in water at appropriately formulated product rates to achieve the desired rates based on a unit area of application (hectare) to achieve the desired rates as shown. No adjuvants were tank-mixed with any treatments applied in the field trials. Treatments were rated at 14-26 days after application as compared to the untreated control plants. […]

In assay [2] the test system is Abutilon theophrasti (velvetleaf, ABUTH). Described as above. The procedure:
as §1, §2, §3, §4, §5, §6

Assay [3] has as its system Chenopodium album (common lambsquarters, CHEAL). The assay is described as follows: Postemergence herbicidal weed control, fluroxypyr-meptyl and cloransulam-methyl, field trials (Table 2). The method, then:
as §1, §2, §3, §4, §5
as §6, with “[…] Visual weed control was scored on a scale of 0” for “Treatments were rated at 14-26 days after application as compared”, “100 percent where 0 corresponds to no injury and 100 corresponds to complete kill.” for “the untreated control plants.”

Assay [4] concerns Amaranthus rudis Sauer (common waterhemp, AMATA). The assay is described as above. The procedure: as §1, §2, §3, §4, §5, §6
Assay [5] relates to Abutilon theophrasti (velvetleaf, ABUTH). The assay is described as above. The procedure:
as §1, §2, §3, §4, §5, §6

For assay [6], the system named is Commelina benghalensis (tropical spiderwort, COMBE). The assay is described as follows: Postemergence herbicidal weed control, fluroxypyr-meptyl and diclosulam, greenhouse trials (Table 1). The method, then: as §5
(§7) All treatments in the field trials were applied using either pressurized air or carbon dioxide (CO2) backpack or bicycle sprayers calibrated to apply 100-187 L/ha spray volume. Flat Fan spray nozzles were used in all trials, with water as the diluent applied at 275-300 kilopascals (kPa). Weed sizes at application ranged from 10 to 40 cm tall. Commercially available products of fluroxypyr-meptyl (STARANE™, 180 and 333 g ae/L EC), diclosulam (SPIDER® 84WG), and thifensulfuron-methyl (HARMONY® 75WG) were mixed in water at appropriately formulated product rates to achieve the desired rates based on a unit area of application (hectare) to achieve the desired rates as shown. No adjuvants were tank-mixed with any treatments applied in the field trials. Treatments were rated at 14-26 days after application as compared to the untreated control plants. Visual weed control was scored on a scale of 0 to 100 percent where 0 corresponds to no injury and 100 corresponds to complete kill.
(§8) The treated plots and control plots were rated blind at various intervals after application. Ratings were reported on a Percent (%) Visual Control basis, where 0 corresponds to no visual effect/weed control and 100 corresponds to complete kill of the target weeds.
(§9) Colby's equation was used to determine the herbicidal effects expected from the mixtures (Colby, S. R. Calculation of the synergistic and antagonistic response of herbicide combinations. Weeds 196715, 20-22). A t-test (alpha=0.05) between Colby predictions and observed combinations was used to test for significant differences indicating synergy or antagonism. The results presented in the Tables were significant according to the described criteria.
(§10) The following equation was used to calculate the expected activity of mixtures containing two active ingredients, A and B: Expected=A+B−(A×B/100) • A=observed efficacy of active ingredient A at the same concentration as used in the mixture; • B=observed efficacy of active ingredient B at the same concentration as used in the mixture.

For assay [7], the system named is Amaranthus rudis Sauer (common waterhemp, AMATA). The description is as above. The procedure: as §1, §2, §3, §4, §9, §10
The test system of assay [8] is Chenopodium album (common lambsquarters, CHEAL). The assay is described as above. The method, then: as §1, §2, §3, §4, §9, §10
Assay [9] concerns Abutilon theophrasti (velvetleaf, ABUTH). Described as above. The method, then:
as §1, §2, §3, §4, §9, §10

In assay [10] the test system is Sida cordifolia L. (heartleaf sida, SIDCO). The description is as above. Conditions: 14DAA1, 25.2 g ai/ha. The method, then: as §1
Treatments consisted of the compounds as listed in Tables 1 to 4, each compound applied alone and in combination. […]
Treatments were rated at 7 to 21 days after application (DAA) as compared to the untreated control plants. Visual weed control was scored on a scale of 0 to 100 percent where 0 corresponds to no injury and 100 corresponds to complete kill. […]

For assay [11], the system named is Abutilon theophrasti (velvetleaf, ABUTH). The assay is described as follows: Postemergence herbicidal weed control, fluroxypyr-meptyl and thifensulfuron-methyl, field trials (Table 4). The procedure: as §1, §2, §3, §4, §5
(§11) All treatments in the field trials were applied using either pressurized air or carbon dioxide (CO2) backpack or bicycle sprayers calibrated to apply 100-187 L/ha spray volume. Flat Fan spray nozzles were used in all trials, with water as the diluent applied at 275-300 kilopascals (kPa). Weed sizes at application ranged from 10 to 40 cm tall. […]

In assay [12] the test system is Amaranthus palmeri S. Wats. (Palmer amaranth, AMAPA). Described as above. The conditions noted are these: 7DAA1, 2.2 g ai/ha. The method, then: as §1, §2, §3, §4, §5, §11
For assay [13], the system named is Polygonum convolvulus L. (wild buckwheat, POLCO). The assay is described as above. Conditions: 21DAA1, 13.0 g ai/ha. The method, then: as §5, §7, §8, §9, §10
The subject of assay [14] is Chenopodium album (common lambsquarters, CHEAL). The assay is described as above. Conditions: 21DAA1, 13.0 g ai/ha. The procedure: as §5, §7, §8, §9, §10
The subject of assay [15] is Amaranthus retroflexus L. (redroot pigweed, AMARE). The description is as above. Conditions: 21DAA1, 13.0 g ai/ha. The procedure: as §5, §7, §8, §9, §10

With `CCOC(=O)c1ccccc1S(=O)(=O)NC(=O)Nc1nc(Cl)cc(OC)n1` [Chlorimuron-ethyl, ethyl 2-[[[[(4-chloro-6-methoxy-2-pyrimidinyl)amino]carbonyl]amino]-sulfonyl]benzoate], the “Chlorimuron-ethyl Mean % weed control” value in assay [1] (7DAA1, 8.8 g ai/ha) is 41.3%; in assay [1] (14DAA1, 8.8 g ai/ha) it was 28.8%; in assay [2] (14DAA1, 1.1 g ai/ha), 56.3%; in assay [2] (14DAA1, 2.2 g ai/ha) it was 62.5%.
`CCOc1nc(F)cc2nc(S(=O)(=O)Nc3c(Cl)cccc3C(=O)OC)nn12` [Cloransulam-methyl, methyl 3-chloro-2-[[(5-ethoxy-7-fluoro[1,2,4]triazolo[1,5-c]pyrimidin-2-yl)sulfonyl]amino]benzoate]: the “Cloransulam-methyl Mean % weed control” value in [3] (8DAA1, 4.4 g ai/ha) is given as 35.0%; in assay [3] (14DAA1, 1.1 g ai/ha) it was 16.7%; in assay [3] (14DAA1, 4.4 g ai/ha), 11.7%; in [3] (21DAA1, 1.1 g ai/ha), 8.3%; in assay [3] (21DAA1, 4.4 g ai/ha), 11.0%; in [3] (21DAA1, 8.8 g ai/ha), 10.0%. The “Cloransulam-methyl Mean % weed control” value in assay [4] (8DAA1, 4.4 g ai/ha) is given as 58.8%; in assay [4] (14DAA1, 4.4 g ai/ha), 38.8%; in [4] (21DAA1, 4.4 g ai/ha), 37.5%; in assay [5] (14DAA1, 1.1 g ai/ha) it was 38.3%; in assay [5] (14DAA1, 4.4 g ai/ha), 70.0%; in assay [5] (21DAA1, 1.1 g ai/ha) it was 40.0%. In assay [5] (21DAA1, 4.4 g ai/ha), the “Cloransulam-methyl Mean % weed control” value turned out to be 70.0%.
For the molecule `CCOc1nc(F)cc2nc(S(=O)(=O)Nc3c(Cl)cccc3Cl)nn12` [Diclosulam, N-(2,6-dichlorophenyl)-5-ethoxy-7-fluoro[1,2,4]triazolo[1,5-c]pyrimidine-2-sulfonamide], the “Diclosulam Mean % weed control” value turned out to be 41.3% in [6] (14DAA1, 25.2 g ai/ha); 17.5% in assay [6] (26DAA1, 25.2 g ai/ha); 51.3% in assay [7] (8DAA1, 8.8 g ai/ha); 28.8% in [7] (14DAA1, 4.4 g ai/ha); 27.5% in assay [7] (14DAA1, 8.8 g ai/ha); 25.0% in assay [7] (21DAA1, 4.4 g ai/ha). The “Diclosulam Mean % weed control” value in assay [7] (21DAA1, 8.8 g ai/ha) is 28.8%; in assay [8] (8DAA1, 8.8 g ai/ha) it was 38.3%; in assay [8] (14DAA1, 2.2 g ai/ha) it was 3.3%; in [8] (14DAA1, 8.8 g ai/ha) it was 21.7%; in [8] (21DAA1, 2.2 g ai/ha) it was 5.0%; in assay [8] (21DAA1, 4.4 g ai/ha), 16.7%. Moreover, the “Diclosulam Mean % weed control” value in assay [8] (21DAA1, 8.8 g ai/ha) came out at 31.7%; in [9] (14DAA1, 1.1 g ai/ha), 28.8%; in [9] (21DAA1, 1.1 g ai/ha) it was 30.0%; in assay [10], 23.3%.
As to `COC(=O)c1sccc1S(=O)(=O)NC(=O)Nc1nc(C)nc(OC)n1` [Thifensulfuron-methyl, methyl 3-[[[[(4-methoxy-6-methyl-1,3,5-triazin-2-yl)amino]carbonyl]amino]sulfonyl]-2-thiophenecarboxylate], the “Thifensulfuron-methyl Mean % weed control” value in assay [11] (14DAA1, 0.6 g ai/ha) is 56.3%; in [11] (14DAA1, 1.1 g ai/ha) it was 73.8%; in assay [12], 22.5%; in assay [13], 90.0%; in assay [14] it was 90.0%; in assay [15] it was 90.0%.
